Experiment: Stability study of triheptanoin on storage (acid value, diester impurities, purity by GC and/or HPLC)
Type: physicochemical
Procedure: The stability data of the present invention at different stability condition(s) from initial to up to 6 (six) months is described below in Table-I: As shown in Table-I, two batches (Example 16 & Example 17) of triheptanoin prepared by the present method with acid values of […] about 0.2 mg KOH/gm were studied for stability. The samples were kept at 25° C./60% RH, 40° C./75% RH for up to 6 months and at 50° C. for up to 3 months. During the stability study, the inventors of the present invention have focused on % of 1,2-Diester Impurity, % of 1,3-Diester Impurity and purity of triheptanoin.

[1] = 25° C./60% RH, 3 M, listed as Example 17
[2] = 25° C./60% RH, 6 M, listed as Example 17
[3] = 25° C./60% RH, 40° C./75% RH up to 6 months, 50° C. up to 3 months, acid value greater than about 0.2 mg KOH/gm
[4] = 40° C./75% RH, 1 M, listed as Example 17
[5] = 40° C./75% RH, 2 M, listed as Example 17
[6] = 40° C./75% RH, 3 M, listed as Example 17
[7] = 40° C./75% RH, 6 M, listed as Example 17
[8] = 50° C., 1 M, listed as Example 17
[9] = 50° C., 2 M, listed as Example 17
[10] = 50° C., 3 M, listed as Example 17

CCCCCCC(=O)OCC(COC(=O)CCCCCC)OC(=O)CCCCCC [Example 16, heptanoic acid, 1,1′,1″-(1,2,3 propanetriyl) ester]
1,2 Diester Impurity (NMT 0.05%) (25° C./60% RH, 1 M): 0.004%
1,3 Diester Impurity (NMT 0.05%) (25° C./60% RH, 1 M): 0.002%
Acid value (25° C./60% RH, 1 M): 0.24 mg KOH/gm
Triheptanoin purity (25° C./60% RH, 1 M): 99.83%
Triheptanoin purity (25° C./60% RH, 1 M, listed as Example 17): 99.82%
1,2 Diester Impurity (NMT 0.05%) (25° C./60% RH, 3 M): 0.007%
1,3 Diester Impurity (NMT 0.05%) (25° C./60% RH, 3 M): 0.002%
Acid value (25° C./60% RH, 3 M): 0.23 mg KOH/gm
Triheptanoin purity (25° C./60% RH, 3 M): 99.82%
1,2 Diester Impurity (NMT 0.05%) [1]: 0.004%
1,3 Diester Impurity (NMT 0.05%) [1]: 0.003%
Acid value [1]: 0.22 mg KOH/gm
Triheptanoin purity [1]: 99.84%
1,2 Diester Impurity (NMT 0.05%) (25° C./60% RH, 6 M): 0.005%
1,3 Diester Impurity (NMT 0.05%) (25° C./60% RH, 6 M): 0.009%
Acid value (25° C./60% RH, 6 M): 0.27 mg KOH/gm
Triheptanoin purity (25° C./60% RH, 6 M): 99.81%
1,2 Diester Impurity (NMT 0.05%) [2]: 0.003%
1,3 Diester Impurity (NMT 0.05%) [2]: 0.004%
Triheptanoin purity [2]: 99.82%
1,2-Diester and 1,3-Diester impurities during the storage [3]: not increasing
assay potency of triheptanoin during the storage [3]: maintained
purity of triheptanoin during storage as measured by GC and/or HPLC [3]: greater than 99.7%
1,2 Diester Impurity (NMT 0.05%) (40° C./75% RH, 1 M): 0.005%
1,3 Diester Impurity (NMT 0.05%) (40° C./75% RH, 1 M): 0.003%
Acid value (40° C./75% RH, 1 M): 0.24 mg KOH/gm
Triheptanoin purity (40° C./75% RH, 1 M): 99.83%
1,2 Diester Impurity (NMT 0.05%) [4]: 0.004%
1,3 Diester Impurity (NMT 0.05%) [4]: 0.004%
Triheptanoin purity [4]: 99.82%
1,2 Diester Impurity (NMT 0.05%) (40° C./75% RH, 2 M): 0.008%
1,3 Diester Impurity (NMT 0.05%) (40° C./75% RH, 2 M): 0.005%
Acid value (40° C./75% RH, 2 M): 0.24 mg KOH/gm
Triheptanoin purity (40° C./75% RH, 2 M): 99.78%
1,2 Diester Impurity (NMT 0.05%) [5]: 0.006%
1,3 Diester Impurity (NMT 0.05%) [5]: 0.003%
Acid value [5]: 0.25 mg KOH/gm
Triheptanoin purity [5]: 99.81%
1,2 Diester Impurity (NMT 0.05%) (40° C./75% RH, 3 M): 0.013%
1,3 Diester Impurity (NMT 0.05%) (40° C./75% RH, 3 M): 0.007%
Acid value (40° C./75% RH, 3 M): 0.24 mg KOH/gm
Triheptanoin purity (40° C./75% RH, 3 M): 99.82%
1,2 Diester Impurity (NMT 0.05%) [6]: 0.006%
1,3 Diester Impurity (NMT 0.05%) [6]: 0.005%
Acid value [6]: 0.23 mg KOH/gm
1,2 Diester Impurity (NMT 0.05%) (40° C./75% RH, 6 M): 0.018%
1,3 Diester Impurity (NMT 0.05%) (40° C./75% RH, 6 M): 0.015%
Acid value (40° C./75% RH, 6 M): 0.26 mg KOH/gm
Triheptanoin purity (40° C./75% RH, 6 M): 99.74%
1,2 Diester Impurity (NMT 0.05%) [7]: 0.011%
1,3 Diester Impurity (NMT 0.05%) [7]: 0.014%
Acid value [7]: 0.29 mg KOH/gm
Triheptanoin purity [7]: 99.81%
1,2 Diester Impurity (NMT 0.05%) (50° C., 1 M): 0.008%
1,3 Diester Impurity (NMT 0.05%) (50° C., 1 M): 0.005%
Acid value (50° C., 1 M): 0.24 mg KOH/gm
Triheptanoin purity (50° C., 1 M): 99.83%
1,2 Diester Impurity (NMT 0.05%) [8]: 0.005%
1,3 Diester Impurity (NMT 0.05%) [8]: 0.004%
Triheptanoin purity [8]: 99.81%
1,2 Diester Impurity (NMT 0.05%) (50° C., 2 M): 0.014%
1,3 Diester Impurity (NMT 0.05%) (50° C., 2 M): 0.010%
Acid value (50° C., 2 M): 0.24 mg KOH/gm
Triheptanoin purity (50° C., 2 M): 99.76%
1,2 Diester Impurity (NMT 0.05%) [9]: 0.008%
1,3 Diester Impurity (NMT 0.05%) [9]: 0.007%
Acid value [9]: 0.25 mg KOH/gm
Triheptanoin purity [9]: 99.78%
1,2 Diester Impurity (NMT 0.05%) (50° C., 3 M): 0.014%
1,3 Diester Impurity (NMT 0.05%) (50° C., 3 M): 0.012%
Acid value (50° C., 3 M): 0.25 mg KOH/gm
Triheptanoin purity (50° C., 3 M): 99.80%
1,2 Diester Impurity (NMT 0.05%) [10]: 0.010%
1,3 Diester Impurity (NMT 0.05%) [10]: 0.010%
Acid value [10]: 0.24 mg KOH/gm
Triheptanoin purity [10]: 99.83%
1,2 Diester Impurity (NMT 0.05%) (Initial): 0.004%
1,3 Diester Impurity (NMT 0.05%) (Initial): 0.002%
Acid value (Initial): 0.21 mg KOH/gm
Triheptanoin purity (Initial): 99.76%
1,2 Diester Impurity (NMT 0.05%) (Initial, listed as Example 17): 0.003%
Triheptanoin purity (Initial, listed as Example 17): 99.77%
